Experimental data taken from US10028992B2, “Methods of treating muscular dystrophy” (BOARD OF REGENTS OF THE NEVADA SYSTEM OF HIGHER EDUCATION …, priority 2012, dated 2018).

Test system: α7 integrin promoter
Experiment: muscle cell-based assay: α7βgal+/− myoblasts/myotubes, LacZ reporter, β-galactosidase cleavage of FDG
Parameters: species or system mouse
Details: Myotubes; for Results in a α7+/− β-galactosidase assay, Myotubes, 0.5 uM: compound at 0.5 uM; for Results in a α7+/− β-galactosidase assay, Myotubes, 1 uM: compound at 1 uM; for Results in a α7+/− β-galactosidase assay, Myotubes, 5 uM: compound at 5 uM; for Results in a α7+/− β-galactosidase assay, Myotubes, 10 uM: compound at 10 uM; for Results in a α7+/− β-galactosidase assay, Myotubes, 20 uM: compound at 20 uM; for Results in a α7+/− β-galactosidase assay, Myotubes, 40 uM: compound at 40 uM
Summary of the method: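 Fluorescein generated from FDG by β-galactosidase reports α7 integrin promoter activity in differentiated myoblasts from α7+/− LacZ knock-in pups. Screening hits then went to dose-response, western blotting and a myostatin counterscreen.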

Row | Structure (SMILES) | Results in a α7+/− β-galactosidase assay, Myotubes, 0.5 uM | Results in a α7+/− β-galactosidase assay, Myotubes, 1 uM | Results in a α7+/− β-galactosidase assay, Myotubes, 5 uM | Results in a α7+/− β-galactosidase assay, Myotubes, 10 uM | Results in a α7+/− β-galactosidase assay, Myotubes, 20 uM | Results in a α7+/− β-galactosidase assay, Myotubes, 40 uM
1 | CCCCNc1nnc(Cc2ccc(Cl)cc2)c(O)n1 [drawing 335] | 0.2647 | 0.1668 | −0.1354 | −0.08652 | −0.07223 | −0.1
2 | CC(C)CN(C(=O)c1cccc(Cl)c1)c1c(N)n(Cc2ccccc2)c(=O)[nH]c1=O [drawing 336] | 0.198 | 0.2672 | −0.02107 | 0.07176 | −0.1352 | −0.2545
3 | Cc1nc(O)nc(O)c1S(=O)(=O)Nc1ccc(F)cc1Cl [drawing 337] | 0.2345 | 0.05045 | 0.06886 | 0.09509 | −0.05815 | −0.1517
4 | Cc1nnc(-c2ccc(N3CCOCC3)c([N+](=O)[O-])c2)o1 [drawing 338] | 0.0728 | 0.1596 | −0.09085 | −0.1238 | 0.04847 | −0.1846
5 | Cc1cc(C)cc(OCC(=O)N/N=C/c2ccccn2)c1 [drawing 339] | 0.02382 | 0.1393 | 0.05474 | −0.09985 | 0.0109 | 0.02169
6 | O=C1Nc2ccccc2/C1=C/c1c[nH]c(-c2ccccc2)n1 [drawing 340] | 0.05652 | 0.1643 | 0.09489 | −0.07868 | −0.03697 | −0.06801
7 | O=C(c1ccccc1)N1CCN(S(=O)(=O)c2cccs2)CC1 [drawing 341] | 0.0882 | 0.04972 | 0.07204 | −0.06595 | −0.01414 | −0.06305
8 | COc1ccccc1C(=O)Nc1ccnn1C1CCN(C(=O)c2ccoc2)CC1 [drawing 343] | 0.01341 | −0.07814 | 0.06946 | 0.05194 | −0.08844 | −0.04958
9 | CCOC(=O)c1nnn(-c2nonc2OC)c1-c1ccccc1 [drawing 344] | 0.0549 | 0.07612 | 0.1364 | 0.03578 | 0.0782 | −0.03173
10 | CC(C)(C)Nc1nc(-c2ccc3c(c2)CCN3C(=O)C2CC2)cs1 [drawing 345] | 0.1684 | 0.1611 | 0.06864 | 0.06011 | −0.1349 | −0.5189
11 | CCN(C(=O)c1ccc(S(=O)(=O)N(C)C)cc1)C(C)C(=O)Nc1ccc(C)cc1 (stereo not drawn) [drawing 348] | −0.152 | −0.2399 | −0.0943 | 0.05776 | −0.2237 | 0.02912
12 | COc1cc(NC(=O)OCc2ccccc2)c2ncccc2c1 [drawing 349] | 0.01764 | 0.03267 | −0.1098 | −0.05054 | −0.1951 | −0.2383
13 | Cc1ccc2c(c1)/C(=C/c1ccccc1C)C(=O)N2 [drawing 350] | −0.01581 | −0.0839 | −0.04071 | 0.0246 | −0.4093 | −0.6283
14 | O=C(NCCc1ccccc1)C1CCC(=O)N1C1CCCC1 (stereo not drawn) [drawing 351] | 0.05429 | −0.1351 | 0.08688 | 0.1206 | −0.1635 | −0.1123
15 | CCCN(C(=O)c1ccc(S(=O)(=O)N2CCCC2)cc1)C1CCS(=O)(=O)C1 (stereo not drawn) [drawing 352] | −0.1044 | −0.1728 | −0.01555 | 0.1537 | −0.08104 | −0.06466
16 | C=CCOc1ccc(C(=O)/C=C2\C(=O)Nc3ccccc32)cc1 [drawing 353] | −0.02111 | −0.0826 | −0.09703 | 0.05145 | −0.2835 | −0.2827
17 | CCN(CC(=O)NCc1cccs1)C(=O)COc1ccc(C(N)=O)cc1 [drawing 354] | 0.06872 | −0.07237 | 0.09763 | 0.2952 | −0.2218 | −0.02391
18 | CC(C)Oc1cccc(C(=O)Nc2ccc(CN3CCOCC3)cc2)c1 [drawing 355] | −0.02164 | −0.1398 | 0.1741 | 0.1947 | −0.2357 | −0.1159
19 | Cc1ccc(/C=C2\C(=O)Nc3ccccc32)o1 [drawing 356] | 0.09656 | −0.02249 | −0.1043 | −0.06876 | −0.2369 | −0.336
20 | O=c1[nH]c(CN2CCCCC2)cc2c1C1(CCCCC1)Cc1ccccc1-2 [drawing 357] | 0.1087 | 0.1264 | −0.08739 | −0.0441 | −0.09507 | −0.1888
